Test results as given in ChEMBL document CHEMBL5104164, “Design, synthesis, and biological evaluation of pyrrolopyrimidine derivatives as novel Bruton's tyrosine kinase (BTK) inhibitors” (Eur J Med Chem, 2022).

How the values were obtained:
[1] = target: Epidermal growth factor receptor (Homo sapiens) (UniProt P00533); test: Inhibition of EGFR (unknown origin) assessed as residual percent of control at 1 uM measured by DiscoverX kinome scan assay relative to control
TMD8 [2] = test: Cell cycle arrest in human TMD8 cells assessed as accumulation of cells at G2 phase at 10 nM after 48 hrs by propidium iodide staining based flow cytometric analysis (reference value: 13.4%); format: functional
[3] = Toxicity in female CB-17 SCID nude mouse xenografted with human TMD8 cells assessed as effect on platelets at 50 mg/kg, po administered twice daily for 21 days; format: organism-based; conditions: in vivo, 504 h, time 21 day
[4] = AUC (0 to infinity) in male BALB/c mouse at 2 mg/kg, iv; format: ADME, organism-based; parameters: time infinity, dose 2 mg/kg, route iv; conditions: in vivo
[5] = Tmax in male BALB/c mouse at 2 mg/kg, iv; format: ADME, organism-based; conditions: in vivo
[6] = Mutagenicity in Salmonella typhimurium TA98 at 1.5 to 1000 ug per plate in presence of liver microsomes by AMES test; format: toxicity, Salmonella enterica subsp. enterica serovar Typhimurium; conditions: dose 1.5-1000 µg
[7] = Toxicity in female CB-17 SCID nude mouse xenografted with human TMD8 cells assessed as reduction in white blood cells at 50 mg/kg, po administered twice daily for 21 days; format: organism-based; conditions: in vivo, 504 h, time 21 day
[8] = target: T1, Tyrosine-protein kinase BTK (Homo sapiens, UniProt Q06187); test: Inhibition of BTK (unknown origin) assessed as residual percent of control at 1 uM measured by DiscoverX kinome scan assay relative to control
TMD8 [9] = test: Cell cycle arrest in human TMD8 cells assessed as accumulation of cells at G0/G1 phase at 10 nM after 48 hrs by propidium iodide staining based flow cytometric analysis (reference value: 32.9%); format: functional
[10] = Half-life in male BALB/c mouse at 2 mg/kg, iv; format: ADME, organism-based; conditions: in vivo
[11] = Antiproliferative activity against human MINO cells incubated for 72 hrs by CellTiter-Glo assay; format: functional, cell-based
[12] = target: T2, Tyrosine-protein kinase JAK3 (Homo sapiens) (UniProt P52333); test: Inhibition of Jak3 (unknown origin) assessed as residual percent of control at 1 uM measured by DiscoverX kinome scan assay relative to control
T2 sequence (whole entry): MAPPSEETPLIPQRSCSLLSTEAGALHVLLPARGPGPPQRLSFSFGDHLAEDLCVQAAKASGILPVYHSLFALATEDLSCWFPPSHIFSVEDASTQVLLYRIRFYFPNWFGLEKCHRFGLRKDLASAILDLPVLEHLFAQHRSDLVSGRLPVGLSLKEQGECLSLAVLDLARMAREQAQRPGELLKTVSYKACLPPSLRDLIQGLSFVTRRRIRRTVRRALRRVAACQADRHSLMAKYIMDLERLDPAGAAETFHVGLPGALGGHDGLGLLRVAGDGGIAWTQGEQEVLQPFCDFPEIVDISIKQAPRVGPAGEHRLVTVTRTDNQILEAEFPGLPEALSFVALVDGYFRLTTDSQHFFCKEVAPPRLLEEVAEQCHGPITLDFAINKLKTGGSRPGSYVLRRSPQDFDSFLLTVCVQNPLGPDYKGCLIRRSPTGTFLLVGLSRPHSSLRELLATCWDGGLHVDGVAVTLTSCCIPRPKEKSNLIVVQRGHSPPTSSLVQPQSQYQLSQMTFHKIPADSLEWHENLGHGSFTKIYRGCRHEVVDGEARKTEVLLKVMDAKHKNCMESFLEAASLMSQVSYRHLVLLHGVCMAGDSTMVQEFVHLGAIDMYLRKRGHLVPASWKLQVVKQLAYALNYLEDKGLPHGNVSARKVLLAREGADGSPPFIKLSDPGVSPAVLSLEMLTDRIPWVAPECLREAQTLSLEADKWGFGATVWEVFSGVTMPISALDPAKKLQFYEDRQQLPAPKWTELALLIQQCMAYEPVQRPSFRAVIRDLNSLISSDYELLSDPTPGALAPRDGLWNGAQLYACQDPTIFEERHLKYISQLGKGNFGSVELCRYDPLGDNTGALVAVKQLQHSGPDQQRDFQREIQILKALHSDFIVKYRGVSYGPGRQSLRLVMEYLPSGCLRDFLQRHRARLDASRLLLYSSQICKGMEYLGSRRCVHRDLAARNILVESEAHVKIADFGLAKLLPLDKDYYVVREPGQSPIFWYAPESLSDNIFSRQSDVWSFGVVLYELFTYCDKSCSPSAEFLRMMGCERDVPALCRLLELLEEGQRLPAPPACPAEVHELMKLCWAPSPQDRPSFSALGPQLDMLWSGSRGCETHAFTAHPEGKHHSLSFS

Ramos = test: Antiproliferative activity against human Ramos cells incubated for 72 hrs by CellTiter-Glo assay; format: functional, cell-based
Pfeiffer = test: Antiproliferative activity against human Pfeiffer cells incubated for 72 hrs by CellTiter-Glo assay; format: functional, cell-based
[13] = Half-life in male BALB/c mouse at 10 mg/kg, po; format: ADME, organism-based; conditions: in vivo
[14] = target: T1, Tyrosine-protein kinase BTK; test: Inhibition of BTK in human TMD8 cells assessed as inhibition of BTK autophosphorylation at Tyr223 measured by Western blot analysis; format: cell-based
[15] = Oral bioavailability in male BALB/c mouse; format: ADME, organism-based; conditions: in vivo

T1 sequence (Q06187 whole entry): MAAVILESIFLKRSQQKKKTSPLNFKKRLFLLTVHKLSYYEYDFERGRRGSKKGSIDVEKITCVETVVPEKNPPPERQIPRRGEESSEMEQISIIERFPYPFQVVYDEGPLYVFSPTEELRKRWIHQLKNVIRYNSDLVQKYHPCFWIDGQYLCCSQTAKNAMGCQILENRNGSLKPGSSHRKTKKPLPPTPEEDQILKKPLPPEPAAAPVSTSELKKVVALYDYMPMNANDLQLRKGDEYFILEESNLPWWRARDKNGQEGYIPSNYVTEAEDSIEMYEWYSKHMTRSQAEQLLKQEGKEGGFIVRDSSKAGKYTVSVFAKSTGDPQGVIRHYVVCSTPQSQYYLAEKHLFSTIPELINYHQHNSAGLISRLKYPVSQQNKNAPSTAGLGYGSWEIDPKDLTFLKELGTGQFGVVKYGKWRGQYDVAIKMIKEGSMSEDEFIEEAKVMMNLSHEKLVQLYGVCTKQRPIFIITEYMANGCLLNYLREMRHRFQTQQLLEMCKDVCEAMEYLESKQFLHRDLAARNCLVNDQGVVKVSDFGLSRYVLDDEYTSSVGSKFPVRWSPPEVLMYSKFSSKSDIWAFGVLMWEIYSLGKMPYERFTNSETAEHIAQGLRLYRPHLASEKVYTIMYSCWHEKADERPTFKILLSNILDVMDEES
Chain of Epidermal growth factor receptor (Homo sapiens) (P00533 whole entry): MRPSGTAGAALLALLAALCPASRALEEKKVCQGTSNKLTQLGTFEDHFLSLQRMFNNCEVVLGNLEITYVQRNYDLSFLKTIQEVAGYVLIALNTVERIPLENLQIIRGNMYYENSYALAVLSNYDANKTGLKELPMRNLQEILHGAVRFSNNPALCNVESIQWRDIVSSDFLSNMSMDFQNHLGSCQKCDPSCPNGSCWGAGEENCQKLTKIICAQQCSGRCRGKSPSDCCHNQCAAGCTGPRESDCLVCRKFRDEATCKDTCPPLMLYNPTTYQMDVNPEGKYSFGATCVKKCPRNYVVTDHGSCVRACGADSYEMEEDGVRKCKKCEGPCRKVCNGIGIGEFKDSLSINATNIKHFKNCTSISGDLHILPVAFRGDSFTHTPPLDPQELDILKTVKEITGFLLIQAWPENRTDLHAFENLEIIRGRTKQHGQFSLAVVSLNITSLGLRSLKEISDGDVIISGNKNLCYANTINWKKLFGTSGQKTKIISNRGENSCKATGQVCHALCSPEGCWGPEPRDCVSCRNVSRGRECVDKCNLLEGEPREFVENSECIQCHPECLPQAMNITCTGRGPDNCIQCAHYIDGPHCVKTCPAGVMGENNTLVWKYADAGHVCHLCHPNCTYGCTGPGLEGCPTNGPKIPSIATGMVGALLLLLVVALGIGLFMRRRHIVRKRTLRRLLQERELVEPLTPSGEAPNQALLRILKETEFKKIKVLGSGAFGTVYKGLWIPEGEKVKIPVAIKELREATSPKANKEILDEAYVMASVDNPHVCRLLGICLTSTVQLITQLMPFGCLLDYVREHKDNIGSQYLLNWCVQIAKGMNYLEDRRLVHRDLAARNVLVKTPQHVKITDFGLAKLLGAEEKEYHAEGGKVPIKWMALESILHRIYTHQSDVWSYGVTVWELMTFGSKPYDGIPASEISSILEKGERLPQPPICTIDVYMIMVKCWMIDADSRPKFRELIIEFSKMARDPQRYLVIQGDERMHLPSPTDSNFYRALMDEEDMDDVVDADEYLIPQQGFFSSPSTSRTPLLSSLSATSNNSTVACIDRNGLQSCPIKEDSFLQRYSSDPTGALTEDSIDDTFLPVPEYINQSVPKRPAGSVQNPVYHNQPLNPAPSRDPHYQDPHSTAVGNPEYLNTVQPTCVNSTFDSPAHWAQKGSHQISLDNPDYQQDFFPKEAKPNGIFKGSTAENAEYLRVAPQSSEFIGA

C=CC(=O)N1CC=C(c2c[nH]c3ncnc(-c4ccc(CNC(=O)c5ccccc5)c(F)c4)c23)CC1
Activity [1]: 44%
Activity (TMD8 [2]): 8.7%
Activity [3]: Non-Toxic
AUC(0-inf) [4]: 718 ng·h/mL
Tmax [5]: 1.8 min
Activity [6]: Non-Toxic
Activity [7]: Toxic
Activity [8]: 0.05%
Activity (TMD8 [9]): 59.2%
half-life [10]: 40.2 min
IC50 [11]: > 10 µM
Activity [12]: 3.8%
IC50 (Ramos): > 10 µM
IC50 (Pfeiffer): > 10 µM
half-life [13]: 35.4 min
IC50 [14]: 0.00149 µM
bioavailability [15]: 41%
